SMILES strings stand for the structures. A value given as a limit tells only on which side of the number the result lay.

In the case of `NC(=O)c1ccc(F)nc1N`, the melting point fell in the range of 198 to 200 °C.

Regarding `COc1ccc(-c2c(Br)oc3cc(OC)cc(OC)c23)cc1`, the melting point fell in the range of 125 to 126 °C.

Turning to `CCOC(=O)CCc1ccc(SCc2coc(/C=C/c3ccccc3)n2)cc1`, the melting point fell in the range of 77 to 78 °C.

The molecule `CC12CC[C@](C(=O)N3CCC4(C=Cc5ccccc54)CC3)(OC1=O)C2(C)C` registered a melting point of 215 to 216 °C.

`c1ccc(CC2CCN(Cc3nc4ccccc4[nH]3)CC2)cc1` displayed a melting point of 179 to 181 °C.

Turning to `CCCc1nc2c(N)nc3ccccc3c2n1CCCCN(OC)C(C)=O`, the melting point is 138 to 140 °C.

Molecule `CN1CC(=O)Nc2ccc(Cl)cc2C1=O` gave a melting point greater than 250 °C.

Consider `CON=C(C(=O)O)C(=O)CBr`, for which the melting point is 76 to 78 °C.

The molecule `CC(=O)N1Cc2cnc(C)n2-c2ccc(Cl)cc2C1c1ccccc1F` (stereo unspecified) gave a melting point of 185 to 186 °C.

On to `Oc1cc(Cl)nc(Cl)c1`, for which the melting point was in the range of 201 to 202 °C.

`CCOC(=O)C(Cl)=NNc1ccccc1Br`: the melting point stood at 106 °C.

For the molecule `CCc1nc2c(N)nc3ccccc3c2n1CC1(C(N)=O)CCC1`, the melting point was 227 to 230 °C.

For `FC(F)(F)c1ccc(-c2cc(Nc3ccc4ccc(Cl)nc4c3)ncn2)cc1`, the melting point amounted to 233 °C.

As to `Cc1cccc(-c2ccccc2NC(=N)N2CCCCC2)c1`, the melting point stood at 131 °C.

As for `O=C(OCC1CO1)c1cccc(C(=O)OCC2CO2)c1` (stereo unspecified), the melting point was 60 to 65 °C.

`O=C1c2ccccc2CN1CCCN1CC=C(c2ccccc2)CC1` came in with a melting point of 104 °C.

Take `N=C(NCCCn1cc(C2=CC(=O)NC2=O)c2ccccc21)c1ccc(O)cc1`: the melting point is greater than 300 °C.

In turn, `CCn1c(SC)cc2ccccc2c1=O` had a melting point of 80 to 82 °C.

`CCCCCCCCOc1ccc(C(=O)Oc2cc(Cl)c(Cl)cc2Cl)cc1` registered a melting point of 53 °C.

With `CC1(C)CCC(C)(C)c2cc(-c3cc(-c4ccc(C=O)cc4)on3)ccc21`, the melting point was 179 to 180 °C.

Take `O=C(O)c1cc(=O)c2ccc(OCCCCCOc3ccc4c(=O)ccoc4c3)cc2o1`: the melting point is 113 to 116 °C.

The molecule `Cn1ncc(NCCN2CCC(c3noc4cc(F)ccc34)CC2)c(Cl)c1=O` came in with a melting point of 145 to 147 °C.

`O=C(Nc1cccnn1)N1CCN(c2cc(-c3ccc(F)cc3F)ncn2)CC1` gave a melting point of 249 to 250 °C.

With `CC(=O)OC1CCc2cc(N(C(C)=O)S(C)(=O)=O)c(Oc3ccccc3)cc21` (stereo unspecified), the melting point worked out at 70 °C.

Take `Cc1cc(C)n(C(=O)CNS(=O)(=O)c2ccc(CC(C)C)cc2)n1`: the melting point amounted to 124 °C.

With `CC(=O)Oc1cc(C)cc(C2(CC#N)N=NC=C2c2cc(NCC(C)OC(C)=O)nc(-c3cccnc3)n2)c1` (stereo unspecified), the melting point is 230 °C.

The molecule `O=C(Nc1ccc(OCCCN2CCNCC2)c2ccccc12)c1cc(F)cc(N2CCCCC2)c1` showed a melting point of 70 to 72 °C.

The molecule `CCCC(=O)c1c(O)oc(=O)c(C(=O)CCC)c1O` gave a melting point of 80 to 82 °C.

With `CCOC(=O)CCCCC(=O)c1[nH]c(=O)[nH]c1C`, the melting point lay within 170 to 172 °C.

`O=S(=O)(Nc1ccccc1O)c1ccccc1`: the melting point was 140 °C.

In the case of `COC(=O)c1ccc(SCc2cccc(C(F)(F)F)c2)c(C)n1`, the melting point was 91 to 93 °C.

The molecule `CCc1nc2c(cnn2CC)c(NC2CCOCC2)c1CNC(=O)c1cccc(C(=O)NCc2ccc(Cl)c(-c3cccc(CN4CCN(C)CC4)c3)c2)c1` yielded a melting point of 112 to 114 °C.

The molecule `CSc1ccc(Nc2nc(=O)cc(N)n2-c2ccccc2)cc1` had a melting point of 133 to 135 °C.

On to `CC=CCNc1cc(C(=O)O)cc(S(N)(=O)=O)c1Nc1ccc(N)cc1`, for which the melting point amounted to 208 °C.

On to `Nc1nc2c(s1)CCN(CC=Cc1cccc([N+](=O)[O-])c1)CC2`, for which the melting point is 165 to 168 °C.

As for `CC(C)S(=O)(=O)n1c(N)nc2ccc(C(=O)c3ccccc3)cc21`, the melting point was in the range of 191 to 193 °C.

For orientation: melting point means the temperature of the solid-liquid transition.
